We go through 19 molecules from US10717716B2, “1,3,4-oxadiazole derivative compounds as histone deacetylase 6 inhibitor, and the pharmaceutical composition comprising the same” (Chong Kun Dang Pharmaceutical Corp., priority 2015, dated 2020).

The target in this experiment is T1, human recombinant HDAC6 (Homo sapiens, UniProt Q9UBN7).
T1 construct: purchased Calbiochem 382180
T1 sequence (Q9UBN7 1-1215): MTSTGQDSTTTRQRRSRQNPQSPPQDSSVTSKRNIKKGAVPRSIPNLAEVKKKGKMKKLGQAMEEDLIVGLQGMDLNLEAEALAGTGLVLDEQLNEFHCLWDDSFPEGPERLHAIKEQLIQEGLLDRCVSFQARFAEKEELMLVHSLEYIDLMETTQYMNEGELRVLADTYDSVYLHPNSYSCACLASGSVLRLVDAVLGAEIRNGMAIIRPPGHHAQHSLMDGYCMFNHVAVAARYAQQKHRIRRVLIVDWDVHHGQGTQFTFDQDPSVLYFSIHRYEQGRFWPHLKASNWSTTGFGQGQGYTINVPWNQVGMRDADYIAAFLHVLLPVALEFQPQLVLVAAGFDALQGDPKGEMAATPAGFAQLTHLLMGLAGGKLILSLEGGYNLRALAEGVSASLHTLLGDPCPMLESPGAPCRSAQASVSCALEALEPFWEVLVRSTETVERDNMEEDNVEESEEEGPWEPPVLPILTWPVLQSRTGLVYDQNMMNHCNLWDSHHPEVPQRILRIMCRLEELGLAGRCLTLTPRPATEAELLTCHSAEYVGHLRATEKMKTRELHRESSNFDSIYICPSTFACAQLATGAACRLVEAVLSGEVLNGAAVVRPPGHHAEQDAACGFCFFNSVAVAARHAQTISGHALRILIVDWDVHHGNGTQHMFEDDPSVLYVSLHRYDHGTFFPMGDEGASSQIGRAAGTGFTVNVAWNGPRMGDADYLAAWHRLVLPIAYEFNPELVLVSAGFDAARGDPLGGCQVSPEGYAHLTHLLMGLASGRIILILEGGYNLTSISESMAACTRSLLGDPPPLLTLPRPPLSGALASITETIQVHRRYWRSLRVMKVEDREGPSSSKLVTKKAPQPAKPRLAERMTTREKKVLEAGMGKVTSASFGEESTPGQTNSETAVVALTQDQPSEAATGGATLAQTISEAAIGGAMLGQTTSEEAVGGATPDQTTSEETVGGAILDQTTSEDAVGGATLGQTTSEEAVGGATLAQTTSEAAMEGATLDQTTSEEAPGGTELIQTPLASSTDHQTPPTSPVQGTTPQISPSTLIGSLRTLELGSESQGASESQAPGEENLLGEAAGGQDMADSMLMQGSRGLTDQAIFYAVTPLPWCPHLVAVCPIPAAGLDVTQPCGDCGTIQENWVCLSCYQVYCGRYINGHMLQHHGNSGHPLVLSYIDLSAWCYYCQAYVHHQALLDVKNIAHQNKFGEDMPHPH
Description: HDAC6 enzyme activity inhibition assay (HDAC Fluorimetric Drug Discovery Kit). To be noted: for HDAC6 selectivity (fold): HDAC6 over HDAC1; for IC50: human recombinant HDAC6, same protocol as HDAC1, read-out: HDAC6. It counts as biochemical. In outline:
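Human recombinant HDAC1 or HDAC6 (0.3 μg) reacted with 10 μM Fluor de Lys-SIRT1 substrate and 5-fold compound dilutions for 60 min at 30 °C. Developer II added for 30 min, fluorescence read at Ex 360/Em 460; IC50 calculated from the readings.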

For `CN(CCO)C(=O)N(Cc1ccc(-c2nnc(C(F)F)o2)cc1)c1ccccc1` [Compound 21585, 1-(4-(5-(Difluoromethyl)-1,3,4-oxadiazol-2-yl)benzyl)-3-(2-hydroxyethyl)-3-methyl-1-phenylurea], the “HDAC6 selectivity (fold)” value came to 370 fold and the IC50 amounted to 27 nM.

Consider `O=C(N1CC2(COC2)C1)N(Cc1ccc(-c2nnc(C(F)F)o2)cc1F)c1ccc(F)c(Cl)c1` [Compound 21586, N-(3-chloro-4-fluorophenyl)-N-(4-(5-(difluoromethyl)-1,3,4-oxadiazol-2-yl)-2-fluorobenzyl)-2-oxa-6-azaspiro[3.3]heptane-6-carboxamide], for which the “HDAC6 selectivity (fold)” value is reported as 476 fold and the IC50 was 21 nM.

For `O=C(N1CCS(=O)(=O)CC1)N(Cc1ccc(-c2nnc(C(F)F)o2)cn1)c1ccc(F)c(Cl)c1` [Compound 21587, N-(3-chloro-4-fluorophenyl)-N-((5-(5-(difluoromethyl)-1,3,4-oxadiazol-2-yl)pyridin-2-yl)methyl)thiomorpholine-4-carboxamide 1,1-dioxide], the “HDAC6 selectivity (fold)” value came to 909 fold and the IC50 was determined as 11 nM.

For the molecule `CCN1CCN(C(=O)N(Cc2ccc(-c3nnc(C(F)F)o3)cc2F)c2ccc(F)c(Cl)c2)CC1` [Compound 21591, N-(3-chloro-4-fluorophenyl)-N-(4-(5-(difluoromethyl)-1,3,4-oxadiazol-2-yl)-2-fluorobenzyl)-4-ethylpiperazine-1-carboxamide], the “HDAC6 selectivity (fold)” value was 668 fold and the IC50 came to 15 nM.

On to `O=C(N1CCOCC1)N(Cc1ccc(-c2nnc(C(F)F)o2)cc1)c1ccc(F)c(Cl)c1` [Compound 21593, N-(3-chloro-4-fluorophenyl)-N-(4-(5-(difluoromethyl)-1,3,4-oxadiazol-2-yl)benzyl)morpholine-4-carboxamide], for which the “HDAC6 selectivity (fold)” value was 494 fold and the IC50 turned out to be 20 nM.

`O=C(N1CCOCC1)N(Cc1ccc(-c2nnc(C(F)(F)F)o2)cc1)c1ccc(F)c(Cl)c1` [Compound 21594, N-(3-chloro-4-fluorophenyl)-N-(4-(5-(trifluoromethyl)-1,3,4-oxadiazol-2-yl)benzyl)morpholine-4-carboxamide]: the “HDAC6 selectivity (fold)” value turned out to be 115 fold and the IC50 came to 87 nM.

For `Cc1cccc(N(Cc2ccc(-c3nnc(C(F)F)o3)cn2)C(=O)N2CCN(C)CC2)c1` [Compound 21597, N-((5-(5-(difluoromethyl)-1,3,4-oxadiazol-2-yl)pyridin-2-yl)methyl)-4-methyl-N-(m-tolyl)piperazine-1-carboxamide], the “HDAC6 selectivity (fold)” value was 323 fold and the IC50 turned out to be 31 nM.

As for `Cc1ccc(N(Cc2ccc(-c3nnc(C(F)F)o3)cn2)C(=O)N2CCN(C)CC2)cc1` [Compound 21598, N-((5-(5-(difluoromethyl)-1,3,4-oxadiazol-2-yl)pyridin-2-yl)methyl)-4-methyl-N-(p-tolyl)piperazine-1-carboxamide], the “HDAC6 selectivity (fold)” value turned out to be 238 fold and the IC50 stood at 42 nM.

Take `CN1CCN(C(=O)N(Cc2ccc(-c3nnc(C(F)F)o3)cn2)c2cccc(F)c2)CC1` [Compound 21599, N-((5-(5-(difluoromethyl)-1,3,4-oxadiazol-2-yl)pyridin-2-yl)methyl)-N-(3-fluorophenyl)-4-methylpiperazine-1-carboxamide]: the “HDAC6 selectivity (fold)” value turned out to be 500 fold and the IC50 came out at 20 nM.

Regarding `CN1CCN(C(=O)N(Cc2ccc(-c3nnc(C(F)F)o3)cn2)c2ccc(F)cc2)CC1` [Compound 21600, N-((5-(5-(difluoromethyl)-1,3,4-oxadiazol-2-yl)pyridin-2-yl)methyl)-N-(4-fluorophenyl)-4-methylpiperazine-1-carboxamide], the “HDAC6 selectivity (fold)” value was found to be 400 fold and the IC50 amounted to 25 nM.

Regarding `CN(C)[C@H]1CCN(C(=O)N(Cc2ccc(-c3nnc(C(F)F)o3)cn2)c2ccc(F)c(Cl)c2)C1` [Compound 21601, (S)—N-(3-chloro-4-fluorophenyl)-N-((5-(5-(difluoromethyl)-1,3,4-oxadiazol-2-yl)pyridin-2-yl)methyl)-3-(dimethylamino)pyrrolidine-1-carboxamide], the “HDAC6 selectivity (fold)” value is on record as 192 fold and the IC50 worked out at 52 nM.

In the case of `CN(C)[C@@H]1CCN(C(=O)N(Cc2ccc(-c3nnc(C(F)F)o3)cn2)c2ccc(F)c(Cl)c2)C1` [Compound 21602, (R)—N-(3-chloro-4-fluorophenyl)-N-((5-(5-(difluoromethyl)-1,3,4-oxadiazol-2-yl)pyridin-2-yl)methyl)-3-(dimethylamino)pyrrolidine-1-carboxamide], the “HDAC6 selectivity (fold)” value was determined as 526 fold and the IC50 worked out at 19 nM.

Turning to `O=C(N1CCOCC1)N(Cc1ccc(-c2nnc(C(F)F)o2)cn1)c1ccc(F)c(Cl)c1` [Compound 21619, N-(3-chloro-4-fluorophenyl)-N-((5-(5-(difluoromethyl)-1,3,4-oxadiazol-2-yl)pyridin-2-yl)methyl)morpholine-4-carboxamide], the “HDAC6 selectivity (fold)” value is on record as 517 fold and the IC50 worked out at 19 nM.

As to `CN1CCN(C(=O)N(Cc2ccc(-c3nnc(C(F)F)o3)cn2)c2ccc(F)c(Cl)c2)CC1` [Compound 21620, N-(3-chloro-4-fluorophenyl)-N-((5-(5-(difluoromethyl)-1,3,4-oxadiazol-2-yl)pyridin-2-yl)methyl)-4-methylpiperazine-1-carboxamide], the “HDAC6 selectivity (fold)” value is reported as 383 fold and the IC50 stood at 26 nM.

Regarding `CN1CCN(c2cccc(N(Cc3ccc(-c4nnc(C(F)F)o4)cc3)C(=O)N3CCS(=O)(=O)CC3)c2)CC1` [Compound 21621, N-(4-(5-(difluoromethyl)-1,3,4-oxadiazol-2-yl)benzyl)-N-(3-(4-methylpiperazin-1-yl)phenyl)thiomorpholine-4-carboxamide 1,1-dioxide], the “HDAC6 selectivity (fold)” value came out at 16 fold and the IC50 came out at 637 nM.

As to `COc1cccc(N(Cc2ccc(-c3nnc(C(F)F)o3)cn2)C(=O)N2CCN(C)CC2)c1` [Compound 21622, N-((5-(5-(difluoromethyl)-1,3,4-oxadiazol-2-yl)pyridin-2-yl)methyl)-N-(3-methoxyphenyl)-4-methylpiperazine-1-carboxamide], the “HDAC6 selectivity (fold)” value is recorded as 226 fold and the IC50 was 44 nM.

Consider `COc1ccc(N(Cc2ccc(-c3nnc(C(F)F)o3)cn2)C(=O)N2CCN(C)CC2)cc1` [Compound 21623, N-((5-(5-(difluoromethyl)-1,3,4-oxadiazol-2-yl)pyridin-2-yl)methyl)-N-(4-methoxyphenyl)-4-methylpiperazine-1-carboxamide], for which the “HDAC6 selectivity (fold)” value turned out to be 290 fold and the IC50 worked out at 35 nM.

As for `CCN1CCN(C(=O)N(Cc2ccc(-c3nnc(C(F)F)o3)cn2)c2ccccc2)CC1` [Compound 21624, N-((5-(5-(difluoromethyl)-1,3,4-oxadiazol-2-yl)pyridin-2-yl)methyl)-4-ethyl-N-phenylpiperazine-1-carboxamide], the “HDAC6 selectivity (fold)” value stood at 347 fold and the IC50 was found to be 29 nM.

Take `O=C(N1CCS(=O)(=O)CC1)N(Cc1ccc(-c2nnc(C(F)F)o2)cn1)c1ccccc1F` [Compound 21625, N-((5-(5-(difluoromethyl)-1,3,4-oxadiazol-2-yl)pyridin-2-yl)methyl)-N-(2-fluorophenyl)thiomorpholine-4-carboxamide 1,1-dioxide]: the “HDAC6 selectivity (fold)” value stood at 422 fold and the IC50 turned out to be 24 nM.
